“And” between values parts separate entries of the source, which are not always exact repeats. Equal entries are not always repeated.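 Grown in 96-well plates, cells were treated for 48 hours with each compound at five concentrations. Insufficient inhibition: endpoint recorded as highest concentration tested. GI50 is the concentration that inhibits growth by half. TGI: total growth inhibition.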
What was measured:
Assay in all cases: growth of human tumour cells (NCI), 48 h
A549 NSCLC = test system: A549 NSCLC
NCI-H460 lung = test system: NCI-H460 lung
SK-OV-3 ovarian = test system: SK-OV-3 ovarian
SK-MEL-28 melanoma = test system: SK-MEL-28 melanoma
UO-31 renal = test system: UO-31 renal
SF-268 CNS = test system: SF-268 CNS
OVCAR-3 ovarian = test system: OVCAR-3 ovarian
IGROV1 ovarian = test system: IGROV1 ovarian
OVCAR-5 ovarian = test system: OVCAR-5 ovarian
KM12 colon = test system: KM12 colon
LOX IMVI melanoma = test system: LOX IMVI melanoma
MDA-MB-231 breast = test system: MDA-MB-231 breast
SF-295 CNS = test system: SF-295 CNS
NCI-H522 lung = test system: NCI-H522 lung
SK-MEL-5 melanoma = test system: SK-MEL-5 melanoma
SN12C renal = test system: SN12C renal
HCT-15 colon = test system: HCT-15 colon
COLO 205 colon = test system: COLO 205 colon
M14 melanoma = test system: M14 melanoma
DU-145 prostate = test system: DU-145 prostate
TK-10 renal = test system: TK-10 renal
SNB-75 CNS = test system: SNB-75 CNS
ACHN renal = test system: ACHN renal
SK-MEL-2 melanoma = test system: SK-MEL-2 melanoma
HCC-2998 colon = test system: HCC-2998 colon
OVCAR-8 ovarian = test system: OVCAR-8 ovarian
SW-620 colon = test system: SW-620 colon
OVCAR-4 ovarian = test system: OVCAR-4 ovarian
UACC-62 melanoma = test system: UACC-62 melanoma
A498 renal = test system: A498 renal
HS 578T breast = test system: HS 578T breast
HOP-92 NSCLC = test system: HOP-92 NSCLC
HCT-116 colon = test system: HCT-116 colon
NCI-H23 lung = test system: NCI-H23 lung
BT-549 breast = test system: BT-549 breast
SNB-19 CNS = test system: SNB-19 CNS
786-0 renal = test system: 786-0 renal
NCI-H226 lung = test system: NCI-H226 lung
HOP-62 NSCLC = test system: HOP-62 NSCLC
K-562 leukemia = test system: K-562 leukemia
PC-3 prostate = test system: PC-3 prostate
HT29 colon = test system: HT29 colon
NCI/ADR-RES ovarian = test system: NCI/ADR-RES ovarian
U251 CNS = test system: U251 CNS
MOLT-4 leukemia = test system: MOLT-4 leukemia
MDA-MB-435 = test system: MDA-MB-435
RXF 393 renal = test system: RXF 393 renal
HL-60(TB) leukemia = test system: HL-60(TB) leukemia
SF-539 CNS = test system: SF-539 CNS
EKVX NSCLC = test system: EKVX NSCLC
T-47D breast = test system: T-47D breast
CCRF-CEM leukemia = test system: CCRF-CEM leukemia
SR leukemia = test system: SR leukemia
RPMI-8226 leukemia = test system: RPMI-8226 leukemia
MCF7 breast = test system: MCF7 breast

CC[C@H](C)[C@H](NC(=O)[C@H]1CCCCN1C)C(=O)N(C)[C@H](C[C@@H](OC(C)=O)c1cccc(C(=O)N[C@@H](Cc2ccccc2)C[C@H](C)C(=O)OC)n1)C(C)C
GI50 (A549 NSCLC): 37.7 nM and 9.74 nM
TGI (A549 NSCLC): > 25000 nM
GI50 (NCI-H460 lung): 3.8 nM and 2.5 nM
TGI (NCI-H460 lung): > 25000 nM
GI50 (SK-OV-3 ovarian): 3.08 nM and 3.14 nM
TGI (SK-OV-3 ovarian): > 25000 nM
GI50 (SK-MEL-28 melanoma): 9.37 nM
TGI (UO-31 renal): > 25000 nM
GI50 (SF-268 CNS): 4.98 nM and 6.61 nM
TGI (SF-268 CNS): > 25000 nM
GI50 (OVCAR-3 ovarian): 0.398 nM and < 2.5 nM
TGI (OVCAR-3 ovarian): 3.08 nM and < 2.5 nM
GI50 (IGROV1 ovarian): 0.812 nM and 5.06 nM
TGI (IGROV1 ovarian): > 25000 nM
GI50 (OVCAR-5 ovarian): 13.7 nM
TGI (OVCAR-5 ovarian): > 25000 nM
GI50 (KM12 colon): 1.88 nM and 2.5 nM
TGI (KM12 colon): > 25000 nM
GI50 (LOX IMVI melanoma): 6.7 nM and 2.5 nM
TGI (LOX IMVI melanoma): > 25000 nM
GI50 (MDA-MB-231 breast): 4.27 nM and 2.67 nM
TGI (MDA-MB-231 breast): 850 nM
GI50 (SF-295 CNS): 4.33 nM and 2.5 nM
TGI (SF-295 CNS): 7.76 nM
GI50 (NCI-H522 lung): 1.54 nM and 2.5 nM
TGI (NCI-H522 lung): 8.94 nM
GI50 (SK-MEL-5 melanoma): 1.07 nM and 2.5 nM
TGI (SK-MEL-5 melanoma): 38.2 nM and 33.3 nM
GI50 (SN12C renal): 5.67 nM and 11.3 nM
TGI (SN12C renal): > 25000 nM
GI50 (HCT-15 colon): 8.15 nM and 7.02 nM
TGI (HCT-15 colon): 9640 nM
GI50 (COLO 205 colon): 1.82 nM and 2.5 nM
TGI (COLO 205 colon): 13.2 nM and 4.46 nM
GI50 (M14 melanoma): 2.27 nM
TGI (M14 melanoma): 12.8 nM
GI50 (DU-145 prostate): 2.82 nM and 2.5 nM
TGI (DU-145 prostate): > 25000 nM
TGI (TK-10 renal): > 25000 nM
GI50 (SNB-75 CNS): 3.66 nM and 4.79 nM
TGI (SNB-75 CNS): > 25000 nM
GI50 (ACHN renal): 6.38 nM and 13 nM
TGI (ACHN renal): > 25000 nM
GI50 (SK-MEL-2 melanoma): 2.5 nM
TGI (SK-MEL-2 melanoma): 10300 nM
GI50 (HCC-2998 colon): 3.62 nM and 2.5 nM
TGI (HCC-2998 colon): > 25000 nM
GI50 (OVCAR-8 ovarian): 7.97 nM and 5.6 nM
TGI (OVCAR-8 ovarian): > 25000 nM
GI50 (SW-620 colon): 3.17 nM and 2.5 nM
TGI (SW-620 colon): > 25000 nM
GI50 (OVCAR-4 ovarian): 27.7 nM and 13.8 nM
TGI (OVCAR-4 ovarian): > 25000 nM
GI50 (UACC-62 melanoma): 0.589 nM and 2.5 nM
TGI (UACC-62 melanoma): > 25000 nM
GI50 (A498 renal): 4.45 nM and 2.5 nM
TGI (A498 renal): 16.6 nM
GI50 (HS 578T breast): 42.3 nM and 6.13 nM
TGI (HS 578T breast): > 25000 nM
GI50 (HOP-92 NSCLC): 0.632 nM and 2.5 nM
GI50 (HCT-116 colon): 3.25 nM and 2.5 nM
TGI (HCT-116 colon): > 25000 nM
GI50 (NCI-H23 lung): 4.43 nM and 5.21 nM
TGI (NCI-H23 lung): > 25000 nM
GI50 (BT-549 breast): 2.5 nM
TGI (BT-549 breast): 222 nM
GI50 (SNB-19 CNS): 4.61 nM and 2.5 nM
TGI (SNB-19 CNS): > 25000 nM
GI50 (786-0 renal): 5.26 nM and 4.25 nM
TGI (786-0 renal): 18300 nM
GI50 (NCI-H226 lung): 456 nM and 51.4 nM
TGI (NCI-H226 lung): > 25000 nM
GI50 (HOP-62 NSCLC): 6.5 nM and 4.27 nM
TGI (HOP-62 NSCLC): > 25000 nM
GI50 (K-562 leukemia): 2.43 nM and 2.5 nM
TGI (K-562 leukemia): > 25000 nM
GI50 (PC-3 prostate): 3.2 nM and 2.5 nM
TGI (PC-3 prostate): > 25000 nM
GI50 (HT29 colon): 1.82 nM and 2.5 nM
TGI (HT29 colon): 42.1 nM
GI50 (NCI/ADR-RES ovarian): 175 nM and 276 nM
TGI (NCI/ADR-RES ovarian): > 25000 nM
GI50 (U251 CNS): 4.08 nM and 3.81 nM
TGI (U251 CNS): > 25000 nM
GI50 (MOLT-4 leukemia): 8.11 nM and 11.1 nM
TGI (MOLT-4 leukemia): > 25000 nM
GI50 (MDA-MB-435): 0.28 nM
TGI (MDA-MB-435): 1.43 nM
GI50 (RXF 393 renal): 3.16 nM
GI50 (HL-60(TB) leukemia): 1.7 nM and < 2.5 nM
TGI (HL-60(TB) leukemia): 6.55 nM and < 2.5 nM
GI50 (SF-539 CNS): 5.92 nM
TGI (SF-539 CNS): 18.3 nM
GI50 (EKVX NSCLC): 8.38 nM and 8.63 nM
TGI (EKVX NSCLC): > 25000 nM
GI50 (T-47D breast): 0.953 nM
GI50 (CCRF-CEM leukemia): 4.95 nM and 2.5 nM
TGI (CCRF-CEM leukemia): > 25000 nM
GI50 (SR leukemia): 0.55 nM and 2.5 nM
TGI (SR leukemia): > 25000 nM
GI50 (RPMI-8226 leukemia): 2.68 nM and 2.5 nM
TGI (RPMI-8226 leukemia): 14500 nM
GI50 (MCF7 breast): 0.334 nM and 2.5 nM
TGI (MCF7 breast): > 25000 nM

Source: PubChem BioAssay (NCI)
